From patent publication EP1247803A2, “Indolinone compounds suitable for modulation of protein kinases” (Sugen, Inc., priority 1996, dated 1998)

Columns and labels:
EGFR = biological target: T1, EGFR (Homo sapiens, UniProt P00533); experiment: EGFR ELISA assay (in vitro kinase activity, EGFR captured from A431 cell lysate); format: biochemical; set-up: concentration or dose not given beside the values
T1 construct: Add 7 ug A431 cell lysate per well (EGFR source); endogenous in cells; host or cells: A431
How it was run: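 EGFR from A431 lysate was captured on anti-EGFR antibody-coated plates and preincubated with compounds for 30 min. Autophosphorylation ran 5 min with 3 uM ATP and 5 mM MnCl2 (final), stopped with 20 mM EDTA. Phosphotyrosine was detected by anti-pTyr ELISA with ABTS/H2O2, read at 410 nm.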

MET = MET biochemical kinase assay; set-up: species or system human; concentration or dose not given beside the values
How it was run: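 Lysate-derived MET, or chimeric receptors, is immobilised on plates through an antibody to the human MET cytoplasmic region. Compounds are added along with kinase buffer supplying ATP and divalent metal ions, and receptor autophosphorylation is quantified by anti-phosphotyrosine ELISA.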

T1 sequence (P00533 25-1210): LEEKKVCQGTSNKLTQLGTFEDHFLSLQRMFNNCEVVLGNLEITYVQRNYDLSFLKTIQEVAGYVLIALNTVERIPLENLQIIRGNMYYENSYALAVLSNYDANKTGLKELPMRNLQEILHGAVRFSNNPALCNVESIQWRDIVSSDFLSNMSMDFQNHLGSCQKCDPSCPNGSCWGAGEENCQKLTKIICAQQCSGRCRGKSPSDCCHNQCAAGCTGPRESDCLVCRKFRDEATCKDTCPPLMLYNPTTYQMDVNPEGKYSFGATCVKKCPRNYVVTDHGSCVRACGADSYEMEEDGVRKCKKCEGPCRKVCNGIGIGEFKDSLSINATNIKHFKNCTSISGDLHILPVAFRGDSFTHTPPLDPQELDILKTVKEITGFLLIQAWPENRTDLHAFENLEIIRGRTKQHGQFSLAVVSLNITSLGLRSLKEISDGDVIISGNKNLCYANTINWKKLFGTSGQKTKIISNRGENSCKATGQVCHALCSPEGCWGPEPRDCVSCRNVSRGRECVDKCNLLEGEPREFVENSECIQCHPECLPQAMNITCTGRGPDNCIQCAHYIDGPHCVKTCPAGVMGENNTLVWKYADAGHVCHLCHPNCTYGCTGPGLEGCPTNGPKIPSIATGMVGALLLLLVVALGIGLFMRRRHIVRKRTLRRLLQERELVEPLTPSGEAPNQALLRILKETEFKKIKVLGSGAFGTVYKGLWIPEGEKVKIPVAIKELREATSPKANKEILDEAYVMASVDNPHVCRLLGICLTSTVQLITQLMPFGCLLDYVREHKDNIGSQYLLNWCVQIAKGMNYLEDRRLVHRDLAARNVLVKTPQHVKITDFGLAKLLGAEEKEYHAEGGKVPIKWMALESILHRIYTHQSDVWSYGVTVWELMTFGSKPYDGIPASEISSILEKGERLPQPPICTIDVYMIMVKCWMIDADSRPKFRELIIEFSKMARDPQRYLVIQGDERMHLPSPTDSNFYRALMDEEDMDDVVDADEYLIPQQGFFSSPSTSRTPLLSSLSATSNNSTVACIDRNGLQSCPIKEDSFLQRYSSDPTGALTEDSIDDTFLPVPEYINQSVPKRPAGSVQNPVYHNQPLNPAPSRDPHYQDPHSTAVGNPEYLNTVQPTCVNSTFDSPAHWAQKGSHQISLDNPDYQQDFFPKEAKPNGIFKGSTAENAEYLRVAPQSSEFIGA

| Compound | Biochem EGFR %Inhibition (EGFR) | Met Kinase % Inhibition (MET) |
| --- | --- | --- |
| CC(C)(C)c1cc(C=C2C(=O)Nc3ccc(CCCl)cc32)cc(Cl)c1OCc1ccccc1 [10732/G10] | -38.2% | 45.7% |
| COc1c([N+](=O)[O-])cc(C=C2C(=O)Nc3ccc(I)cc32)cc1C(C)(C)C [10733/B03] | 14.4% | 62.2% |
| COc1cc(Br)cc(C=C2C(=O)Nc3ccc(Br)c(C)c32)c1O [10733/C08] | 65.8% | 85.7% |
| CNS(=O)(=O)c1ccc2c(c1)C(=Cc1ccc(O)c(OC)c1[N+](=O)[O-])C(=O)N2 [10733/D11] | 33.7% | 31.6% |
| COc1c(C(C)C)cc(C=C2C(=O)Nc3ccc(S(=O)(=O)N4CCOCC4)cc32)cc1C(C)C [10732/F03] | 54.1% | 68.6% |
| COc1c(C)cc(C=C2C(=O)Nc3ccc(Br)c(C)c32)cc1C [10733/C06] | 22.7% | 4.1% |
| Cc1c(Br)ccc2c1C(=Cc1cc(I)c(OCc3ccccc3)c(C(C)(C)C)c1)C(=O)N2 [10733/C02] | 31.6% | 71.8% |
| COc1ccc(C=C2C(=O)Nc3ccc(CCCl)cc32)cc1C(C)(C)C [10732/G05] | 3.8% | 15.2% |
| COc1c(Cl)cc(C=C2C(=O)Nc3ccc(S(=O)(=O)N4CCOCC4)cc32)cc1C(C)(C)C [10732/F09] | -13.4% | 79.7% |
| CC(C)(C)c1cc(C=C2C(=O)Nc3ccc(I)cc32)cc(C(C)(C)C)c1OCc1ccccc1 [10733/B05] | 26.7% | 61.3% |
| COc1ccc(C=C2C(=O)Nc3ccc(S(=O)(=O)Nc4ccc(C(F)(F)F)cc4)cc32)cc1C(C)(C)C [10732/E05] | -17.0% | 2.2% |
| CNS(=O)(=O)c1ccc2c(c1)C(=Cc1cc(C)c(OCc3ccccc3)c(C)c1)C(=O)N2 [10733/D07] | 37.4% | -6.8% |
| O=C1Nc2ccc(S(=O)(=O)N3CCOCC3)cc2C1=CC(c1cccs1)C(F)(F)F (centres unmarked) [10732/F02] | 23.1% | 55.6% |
| CC(C)(C)c1cc(C=C2C(=O)Nc3ccc(S(=O)(=O)N4CCOCC4)cc32)cc(Br)c1OCc1ccccc1 [10732/F08] | -11.9% | 76.6% |
| Cc1c(Br)ccc2c1C(=Cc1cc([N+](=O)[O-])ccc1O)C(=O)N2 [10733/C10] | 36.0% | 20.5% |
| CNS(=O)(=O)c1ccc2c(c1)C(=Cc1ccc([N+](=O)[O-])o1)C(=O)N2 [10718/D11] | 5.4% | 11.3% |
| COc1c(I)cc(C=C2C(=O)Nc3ccc(S(=O)(=O)N4CCOCC4)cc32)cc1C(C)(C)C [10732/F11] | -21.5% | 75.2% |
| CC(C)(C)c1cc(C=C2C(=O)Nc3c(Br)cc(Br)cc32)cc(C(C)(C)C)c1OCc1ccccc1 [10733/A05] | 55.2% | 18.2% |
| COc1c(Br)cc(C=C2C(=O)Nc3ccc(S(=O)(=O)N4CCOCC4)cc32)cc1C(C)(C)C [10732/F07] | -12.5% | 65.5% |
| Cc1cc(C=C2C(=O)Nc3ccc(Br)c(C)c32)cc(C)c1OCc1ccccc1 [10733/C07] | 16.7% | 10.2% |
| CC(C)c1cc(C=C2C(=O)Nc3ccc(S(=O)(=O)Nc4ccc(C(F)(F)F)cc4)cc32)cc(C(C)C)c1Oc1ccccc1 [10732/E04] | -10.6% | 8.2% |
| CC(C)(C)c1cc(C=C2C(=O)Nc3ccc(S(=O)(=O)N4CCOCC4)cc32)ccc1OCc1ccccc1 [10732/F06] | -8.0% | 45.7% |
| COc1c(C)cc(C=C2C(=O)Nc3c(Br)cc(Br)cc32)cc1C [10733/A06] | 45.1% | 33.7% |
| COc1c(I)cc(C=C2C(=O)Nc3ccc(S(=O)(=O)Nc4ccc(C(F)(F)F)cc4)cc32)cc1C(C)(C)C [10732/E11] | -32.2% | 41.4% |
| COc1c(O)ccc(C=C2C(=O)Nc3ccc(I)cc32)c1[N+](=O)[O-] [10733/B11] | 12.5% | 36.6% |
